According to PMC9154774, “4-(3-Alkyl/benzyl-guanidino)benzenesulfonamides as selective carbonic anhydrase VII inhibitors” (Journal of Enzyme Inhibition and Medicinal Chemistry, 2022):

Assays:
Assay in all cases: stopped-flow CO2 hydration assay, phenol red
Format in all cases: biochemical
CA II (hCA II) = target: T1, CA II (hCA II) (Homo sapiens, UniProt P00918)
T1 construct: gene CA2; recombinant, obtained in-house as reported earlier
Text: stopped-flow CO2 hydration assay, phenol red on CA II (hCA II)

CA I (hCA I) = target: T2, CA I (hCA I) (Homo sapiens, UniProt P00915)
T2 construct: gene CA1; recombinant, obtained in-house as reported earlier
Text: stopped-flow CO2 hydration assay, phenol red on CA I (hCA I)

CA VII (hCA VII) = target: T3, CA VII (hCA VII) (Homo sapiens, UniProt P43166)
T3 construct: gene CA7; recombinant, obtained in-house as reported earlier
Text: stopped-flow CO2 hydration assay, phenol red on CA VII (hCA VII)

T3 sequence (P43166 whole entry): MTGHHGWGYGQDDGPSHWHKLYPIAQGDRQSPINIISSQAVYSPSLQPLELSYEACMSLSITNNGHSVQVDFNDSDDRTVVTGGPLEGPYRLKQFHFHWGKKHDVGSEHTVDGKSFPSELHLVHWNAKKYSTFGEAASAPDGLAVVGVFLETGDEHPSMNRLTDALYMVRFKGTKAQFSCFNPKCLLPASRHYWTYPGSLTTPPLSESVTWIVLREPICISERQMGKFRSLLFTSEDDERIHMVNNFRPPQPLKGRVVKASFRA
T2 sequence (P00915 2-261): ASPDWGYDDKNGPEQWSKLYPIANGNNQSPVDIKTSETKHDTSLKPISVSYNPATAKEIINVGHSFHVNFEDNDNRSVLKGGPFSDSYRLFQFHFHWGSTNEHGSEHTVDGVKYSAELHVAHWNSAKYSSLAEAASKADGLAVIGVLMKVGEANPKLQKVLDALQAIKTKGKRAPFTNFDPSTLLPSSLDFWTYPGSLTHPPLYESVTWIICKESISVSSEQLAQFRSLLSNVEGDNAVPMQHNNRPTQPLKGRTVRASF

Ki (CA II (hCA II))	Ki (CA I (hCA I))	Ki (CA VII (hCA VII))	Structure (SMILES)
7.7 nM	746 nM	10.1 nM	N=C(NCc1ccccc1)Nc1ccc(S(N)(=O)=O)cc1 [7a, 4-(3-Benzyl-guanidino)benzenesulfonamide]
17.7 nM	699 nM	25.1 nM	COc1ccc(CNC(=N)Nc2ccc(S(N)(=O)=O)cc2)cc1 [7b, 4-(3-(4-Methoxybenzyl)guanidino)benzenesulfonamide]
59.1 nM	989 nM	15 nM	N=C(NCc1ccc(F)cc1)Nc1ccc(S(N)(=O)=O)cc1 [7c, 4-(3-(4-Fluorobenzyl)guanidino)benzenesulfonamide]
1.6 nM	782 nM	60.7 nM	N=C(NCc1cccc(F)c1)Nc1ccc(S(N)(=O)=O)cc1 [7d, 4-(3-(3-Fluorobenzyl)guanidino)benzenesulfonamide]
0.3 nM	2930 nM	0.9 nM	Cc1cccc(CNC(=N)Nc2ccc(S(N)(=O)=O)cc2)c1 [7f, 4-(3-(3-Methylbenzyl)guanidino)benzenesulfonamide]
0.07 nM	3160 nM	0.4 nM	Cc1ccccc1CNC(=N)Nc1ccc(S(N)(=O)=O)cc1 [7g, 4-(3-(2-Methylbenzyl)guanidino)benzenesulfonamide]

More lines, now with the values behind:

Structure (SMILES)	Ki (CA II (hCA II))	Ki (CA I (hCA I))	Ki (CA VII (hCA VII))
N=C(NCc1ccccc1F)Nc1ccc(S(N)(=O)=O)cc1 [7e, 4-(3-(2-Fluorobenzyl)guanidino)benzenesulfonamide]	3.2 nM	2990 nM	44.9 nM
CC(NC(=N)Nc1ccc(S(N)(=O)=O)cc1)c1ccccc1 (stereo not drawn) [7h, 4-(3-(1-Phenylethyl)guanidino)benzenesulfonamide]	9.6 nM	1320 nM	1.1 nM
Cc1cccc(CN(C)C(=N)Nc2ccc(S(N)(=O)=O)cc2)c1 [7i, 4-(3-Methyl-3-(3-methylbenzyl)guanidino)benzenesulfonamide]	0.08 nM	1140 nM	0.7 nM
N=C(Nc1ccc(S(N)(=O)=O)cc1)N(Cc1ccccc1)Cc1ccccc1 [7j, 4-(3,3-Dibenzyl-guanidino)benzenesulfonamide]	0.6 nM	5850 nM	3.2 nM
N=C(NCCOc1ccccc1)Nc1ccc(S(N)(=O)=O)cc1 [7k, 4-(3-(2-Phenoxyethyl)guanidino)benzenesulfonamide]	6.9 nM	4180 nM	8.7 nM
CCCCCCCCNC(=N)Nc1ccc(S(N)(=O)=O)cc1 [7l, 4-(3-octylguanidino)benzenesulfonamide]	0.9 nM	730 nM	2.2 nM
CCCCCCCCCCCCNC(=N)Nc1ccc(S(N)(=O)=O)cc1 [7m, 4–(3-Dodecylguanidino)benzenesulfonamide]	0.4 nM	930 nM	0.2 nM
CCCCCCCCCCCCCCCCNC(=N)Nc1ccc(S(N)(=O)=O)cc1 [7n, 4-(3-hexadecylguanidino)benzenesulfonamide]	0.06 nM	2150 nM	0.08 nM
N=C(Nc1ccc(S(N)(=O)=O)cc1)N1CCN(Cc2ccccc2)CC1 [7o, 4-Benzyl-N-(4-sulfamoylphenyl)piperazine-1-carboximidamide]	0.1 nM	3680 nM	0.06 nM
